# Source: article PMC5650142, “GPR40 partial agonists and AgoPAMs: Differentiating effects on glucose and hormonal secretions in the rodent” (PLoS ONE, 2017)
# Several values for one entry are separate records, joined by “and”; a condition that tells them apart may be missing. Equal entries are not always repeated. Where two headings read alike, the source gives them in different places.
# Legend:
# rat GPR40 = molecular target: T1, rat GPR40 (Rattus norvegicus, UniProt Q8K3T4); assay: Rat GPR40 IP1 accumulation assay; format: cell-based
# T1 construct: expressed in transfected cells; host or cells: CHO-K1 (methods)
# T1 sequence (Q8K3T4 whole entry): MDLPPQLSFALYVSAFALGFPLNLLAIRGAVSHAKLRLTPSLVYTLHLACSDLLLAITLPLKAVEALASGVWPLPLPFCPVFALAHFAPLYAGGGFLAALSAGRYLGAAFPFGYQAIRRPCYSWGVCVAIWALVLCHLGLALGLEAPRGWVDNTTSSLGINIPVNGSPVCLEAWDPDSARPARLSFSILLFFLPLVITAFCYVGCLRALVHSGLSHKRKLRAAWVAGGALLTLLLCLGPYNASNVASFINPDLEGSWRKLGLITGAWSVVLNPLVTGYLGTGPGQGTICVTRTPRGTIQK
# Experimental: (§1) Stable cell lines expressing human GPR40 (hGPR40/HEK293), mouse GPR40 (mGPR40/CHO-K1), and rat GPR40 (rGPR40/CHO-K1) were cultured in DMEM media supplemented with 10% FBS, glutamine, non-essential amino acids, and penicillin/streptomycin. hGPR40/HEK293 & mGPR40/CHO-K1 cell media was supplemented with […] G418 (Life Technologies), while rGPR40/CHO-K1 cells were grown in […] blasticidin plus […] hygromycin (Life Technologies). Cell stocks were maintained and grown in a sub-confluent state using standard cell culture procedures. The day before the experiment, the cells were harvested with non-enzymatic cell dissociation buffer and re-suspended in DMEM supplemented with 10% FBS, glutamine, non-essential amino acids, penicillin/streptomycin at 0.15, 0.2 and 0.3 million cells per ml for human, mouse, and rat GPR40, respectively. […] The seeded plates were incubated overnight at 37 C.
# (§2) On the day of the experiment, the growth media was removed from the assay by gently patting the assay plates on an absorbent sheet and 10 μl of IP1 stimulation buffer (Cis Bio IP-one Tb HTRF kit) supplemented with 50 mM LiCl is added to each well. Test compounds dissolved in DMSO were serially diluted in ½ log increments starting from 2 mM or 0.2 mM and 50 nl of the compound dilution was acoustically added to each well (final starting concentration 10 μM or 1 μM). Plates were then incubated for 60 minutes at room temperature and 10 μl of detection buffer (prepared as described in the Tb kit) is added to each well. The plates are then incubated one additional hour at room temperature. […] For each assay, a standard curve plate in which IP1 is titrated is also included. […] The percent activity at each concentration of test compound is determined using 0% activation (basal activity) determined in those wells that contain DMSO alone, while 100% activity is determined in wells that contained a concentration of a partial allosteric agonist know to activate GPR40. The % activity is then plotted versus the concentration of test compound and the dose response curve fitted to a standard 4-parameter non-linear regression model using a custom in-house developed software package (Merck & Co., Inc., MRL, Kenilworth, NJ, USA). Maximal % activity and EC50 are then determined for each test compound.
# mouse GPR40 = molecular target: T2, mouse GPR40 (Mus musculus, UniProt Q76JU9); assay: Mouse GPR40 IP1 accumulation assay; format: cell-based
# T2 construct: expressed in transfected cells; host or cells: CHO-K1 (methods)
# T2 sequence (Q76JU9 whole entry): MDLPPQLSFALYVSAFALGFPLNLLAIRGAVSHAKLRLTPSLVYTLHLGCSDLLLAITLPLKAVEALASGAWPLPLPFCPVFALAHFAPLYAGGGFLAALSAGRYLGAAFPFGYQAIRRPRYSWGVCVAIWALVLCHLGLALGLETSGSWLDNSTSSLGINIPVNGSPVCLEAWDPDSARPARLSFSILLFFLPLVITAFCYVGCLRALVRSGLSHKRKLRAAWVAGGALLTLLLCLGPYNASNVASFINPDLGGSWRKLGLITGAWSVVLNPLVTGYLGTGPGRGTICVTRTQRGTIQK
# Experimental: as §1, §2
# GK rats [1] = assay: GK rat chronic efficacy (28 days: glucose, food intake, body weight, GLP-1, GIP, PYY, insulin, glucagon); format: in vivo; settings: 30 mpk, day 28, fed, individual animals
# Experimental: At the start of the study, fed (ambient) blood glucose was measured via glucometer at 1 h post lights on, and animals were selected and sorted into treatment groups based on ambient glucose (n = 10/ GK group, n = 6 WKY control). Blood for baseline incretin measurements was collected in the PM via tail vein. Rats were dosed via oral gavage (PO) at a volume of 5 ml/kg daily at approximately 12:30 PM with either vehicle (0.5% methylcellulose), AP1 at 30 mg/kg, or AP3 at 30 mg/kg. MK-8666, a GPR40 partial agonist synthesized at Merck & Co., Inc., Kenilworth, NJ USA [13], at 30 mg/kg was administered in feed (Research Diets, New Brunswick, NJ) and provided ad lib. All compounds were administered to achieve maximal efficacious exposures determined in acute efficacy studies similar to those acute studies described above. In brief, partial agonists and AgoPAMs were titrated in the acute GK rat experiment described above and the exposure associated with maximal efficacy in glucose lowering was noted. Partial agonists and AgoPAMs were then dosed to maintain those exposures up to 24h post dose. […] Rats from this group and the WKY controls were administered vehicle PO when the vehicle, AP1, and AP3 groups were treated. Fed blood glucose, food intake, and body weights were determined on days 10, 17, 23, and 28 of study at 2 h post lights on. Immediately after these measures were taken on days 10, 17, 23, and 28, food was removed. After 5h of fasting, animals were dosed with vehicle or compound and allowed to rest for an additional hour. Glucose, GLP-1, GIP, and PYY were measured after 6h of fasting at 1 hr post dose. Fed blood glucose is described by animals having had ad libidum access to feed up till the time of sampling and occurred at 2h post-lights on where rats were nearing the end of their nocturnal feeding cycle. Fasted blood glucose is described by blood glucose sampled after 6h of fasting where food was removed at 2h post lights on. Please note that the fasted sample was taken 1h post oral dosing. On day 10, blood was collected from the tail vein (20 μl) after morning glucose measures and after 6 hour fast from a subset of n = 3 rats per treatment group to determine the fed and fasted exposure of the compounds in circulation. The blood was stored at 4°C in 0.1 M sodium citrate for subsequent analysis of drug exposure.
# Blood for insulin, glucagon, GLP-1, GIP, and PYY measurements was collected into K2EDTA Microtainer tubes (BD, Franklin Lakes, NJ) pre-treated with DPP4 inhibitor (Millipore, Billerica, MA) and cOmplete™ Protease Inhibitor Cocktail Tablets (Roche Diagnostics, Indianapolis, IN). Tubes were centrifuged for 10 minutes at 5000 RPM, and plasma was aliquotted for analysis. Plasma insulin levels were measured via EIA (Mesoscale Discovery ELISA Kit, Gaithersburg MD). Rat plasma total GLP-1 was measured using Total GLP-1 (ver.2) Assay Kit (Cat#: K150JVC). The measurement of active GLP-1 was carried out in a similar manner as that described for total GLP-1 assay with the exception that MSD Active GLP-1 (ver. 2) assay kit (Cat# K150JWC) was used. Rat plasma glucagon was measured using an in-house glucagon assay developed as a MSD format sandwich immunoassay (Merck & Co., Inc., MRL, Kenilworth, NJ USA). The antibody specificity was cross validated via mass- spec using procedures described in Lee et al. Briefly, MSD Streptavidin Gold plates were coated with 2 μg/ml biotin mouse monoclonal antibody generated to glucagon. Test samples were added to the plates and a separate Sulfo- tagged monoclonal antibody was used to detect the captured glucagon protein (2 μg/ml). The ELISA was carried out in the standard reagents in the MSD format. The plate was read on the SECTOR Imager 6000 Reader. Metabolic hormones GIP (Gastric Inhibitory Polypeptide) and PYY (Peptide YY) were measured in rat plasma using the Rat Metabolic Magnetic Bead Panel (EMD Millipore, Billerica, MA). The assay was performed according to manufacturer protocol. […]
# GK rats [2] = assay: GK rat acute efficacy (glucose, insulin, glucagon after single dose); format: in vivo; settings: 100 mpk
# Experimental: Ambient blood glucose was measured via tail snip with a glucometer (OneTouch Ultra, Lifescan Inc., Milpitas, CA). Body weights were then measured, and food was removed approximately 1 hr post lights on. Animals were sorted into treatment groups based on ambient glucose. At approximately 10 AM, glucose was measured and blood for insulin, glucagon, and drug exposure was collected. […] Each compound tested was dosed at its maximal effective dose determined through a series of dose titrations using this experimental paradigm (data not shown). Effects of treatment on glucose, insulin, and glucagon were measured at 1, 2, 4, and 24 hrs post dose. After the 4 hr blood collection, food was returned overnight and removed the next day at 1 hr post lights on.
# Blood for insulin, glucagon, GLP-1, GIP, and PYY measurements was collected into K2EDTA Microtainer tubes (BD, Franklin Lakes, NJ) pre-treated with DPP4 inhibitor (Millipore, Billerica, MA) and cOmplete™ Protease Inhibitor Cocktail Tablets (Roche Diagnostics, Indianapolis, IN). Tubes were centrifuged for 10 minutes at 5000 RPM, and plasma was aliquotted for analysis. Plasma insulin levels were measured via EIA (Mesoscale Discovery ELISA Kit, Gaithersburg MD). Rat plasma total GLP-1 was measured using Total GLP-1 (ver.2) Assay Kit (Cat#: K150JVC). The measurement of active GLP-1 was carried out in a similar manner as that described for total GLP-1 assay with the exception that MSD Active GLP-1 (ver. 2) assay kit (Cat# K150JWC) was used. Rat plasma glucagon was measured using an in-house glucagon assay developed as a MSD format sandwich immunoassay (Merck & Co., Inc., MRL, Kenilworth, NJ USA). The antibody specificity was cross validated via mass- spec using procedures described in Lee et al. Briefly, MSD Streptavidin Gold plates were coated with 2 μg/ml biotin mouse monoclonal antibody generated to glucagon. Test samples were added to the plates and a separate Sulfo- tagged monoclonal antibody was used to detect the captured glucagon protein (2 μg/ml). The ELISA was carried out in the standard reagents in the MSD format. The plate was read on the SECTOR Imager 6000 Reader. Metabolic hormones GIP (Gastric Inhibitory Polypeptide) and PYY (Peptide YY) were measured in rat plasma using the Rat Metabolic Magnetic Bead Panel (EMD Millipore, Billerica, MA). The assay was performed according to manufacturer protocol.
compound,measurement,setting,value
"CC#C[C@@H](CC(=O)O)c1ccc(OCc2cccc(-c3ccc(C(F)(F)F)cc3)c2)cc1 [AMG-837, reference compound]",EC50,"rat GPR40; EC50 (nM), Rat GPR40, Functional Assay, individual determinations",1.9 nM and 1.6 nM and 1.2 nM and 0.9 nM and 1.8 nM and 1.1 nM
same,EC50,"rat GPR40; individual determinations, read-out: EC50 (nM), Rat GPR40, Functional Assay",1.3 nM and 2.2 nM
same,EC50,"rat GPR40; mean ± SD, n = 2–20, IP accumulation, read-out: Potency [EC50, nM] ± SD, Rat",1.5 ± 0.41 nM
same,EC50,"mouse GPR40; EC50 (nM), Mouse GPR40, Functional Assay, individual determinations",2.6 nM and 3.6 nM and 1.7 nM and 1.1 nM and 1.8 nM
same,EC50,"mouse GPR40; Potency [EC50, nM] ± SD, Mouse, mean ± SD, n = 2–20, IP accumulation",1.9 ± 0.76 nM
same,EC50,"mouse GPR40; individual determinations, read-out: EC50 (nM), Mouse GPR40, Functional Assay",2 nM
C[C@H](C(=O)O)[C@H](c1ccc2c(c1)O[C@H](C1CN(Cc3cc(C(F)(F)F)ccc3C(F)(F)F)C1)CC2)C1CC1 [P3],Fed glucose on day 28 (Fig 3B),GK rats [1],141 and 132 and 113 and 119 and 112 and 106 and 116 and 101
Cc1cc(OCCCS(C)(=O)=O)cc(C)c1-c1cccc(COc2ccc3c(c2)OC[C@H]3CC(=O)O)c1 [TAK],Plasma Glucagon Over Time (Fig 2C),"GK rats [2]; time 0, individual animals",75.2366 pg/mL and 59.5419 pg/mL and 46.7473 pg/mL and 119.065 pg/mL and 82.5246 pg/mL and 83.5453 pg/mL and 74.4881 pg/mL and 90.3444 pg/mL
same,Plasma Insulin Over Time (Fig 2B),"GK rats [2]; time 0, individual animals",2.655 ng/mL and 1.525 ng/mL and 2.703 ng/mL and 2.889 ng/mL and 1.936 ng/mL and 1.972 ng/mL and 2.503 ng/mL and 2.551 ng/mL
same,Plasma Glucagon Over Time (Fig 2C),"GK rats [2]; time 1, individual animals",168.277 pg/mL and 120.989 pg/mL and 104.57 pg/mL and 184.364 pg/mL and 130.682 pg/mL and 112.051 pg/mL and 81.0192 pg/mL and 132.45 pg/mL
same,Plasma Insulin Over Time (Fig 2B),"GK rats [2]; time 1, individual animals",3.3854 ng/mL and 2.854 ng/mL and 4.397 ng/mL and 4.229 ng/mL and 2.551 ng/mL and 2.055 ng/mL and 2.175 ng/mL and 2.74 ng/mL
same,Plasma Glucagon Over Time (Fig 2C),"GK rats [2]; time 2, individual animals",165.323 pg/mL and 244.359 pg/mL and 138.27 pg/mL and 211.843 pg/mL and 72.9369 pg/mL and 186.55 pg/mL and 94.6201 pg/mL and 160.38 pg/mL
same,Plasma Insulin Over Time (Fig 2B),"GK rats [2]; time 2, individual animals",2.858 ng/mL and 2.437 ng/mL and 3.152 ng/mL and 3.268 ng/mL and 1.276 ng/mL and 1.644 ng/mL and 1.778 ng/mL and 2.202 ng/mL
same,Plasma Glucagon Over Time (Fig 2C),"GK rats [2]; time 4, individual animals",85.2047 pg/mL and 62.7395 pg/mL and 105.981 pg/mL and 18.1244 pg/mL and 124.809 pg/mL and 199.712 pg/mL and 103.043 pg/mL and 175.312 pg/mL
same,Plasma Insulin Over Time (Fig 2B),"GK rats [2]; time 4, individual animals",1.494 ng/mL and 1.787 ng/mL and 2.636 ng/mL and 1.66 ng/mL and 1.848 ng/mL and 1.214 ng/mL and 2.191 ng/mL and 1.8763 ng/mL
same,Plasma Glucagon Over Time (Fig 2C),"GK rats [2]; time 24, individual animals",86.4436 pg/mL and 115.249 pg/mL and 67.5931 pg/mL and 36.8268 pg/mL and 81.8289 pg/mL and 118.991 pg/mL and 35.1523 pg/mL and 94.7909 pg/mL
same,Plasma Insulin Over Time (Fig 2B),"GK rats [2]; time 24, individual animals",1.093 ng/mL and 1.2004 ng/mL and 2.002 ng/mL and 0.9338 ng/mL and 1.238 ng/mL and 1.808 ng/mL and 1.437 ng/mL and 1.841 ng/mL
